# Experimental data reported in patent publication US12391648B2, “Pyridyloxy thioester derivative and preparation method therefor, herbicidal composition, and application” (Qingdao Kingagroot Chemical Compound Co., Ltd., priority 2018, dated 2025).
# Test system: Abutilon theophrasti
# Test: Post-emergence test experiment (Table 3, 1000 g/ha)
# Assay type: in vivo
# Conditions: post-emergence spray, after 3 weeks, fresh weight inhibition
# From the text: (§1) The activity level standard of harmful plants destruction (i. e. growth inhibition rate) is as follows: • Level 5: the growth inhibition rate is greater than 85%; • Level 4: the growth inhibition rate is equal to or greater than 60% and less than 85%; • Level 3: the growth inhibition rate is equal to or greater than 40% and less than 60%; • Level 2: the growth inhibition rate is equal to or greater than 20% and less than 40%; • Level 1: the growth inhibition rate is equal to or greater than 5% and less than 20%; • Level 0: the growth inhibition rate is less than 5%;
# (§2) The above described growth inhibition rate is fresh weight inhibition rate.
# (§3) Post-emergence test experiment: Monocotyledonous and dicotyledonous weed seeds and main crop seeds (i. e. wheat, corn, rice, soybean, cotton, oilseed, millet and sorghum.) were put into a plastic pot loaded with soil. Then covered with 0.5-2 cm soil, the seeds were allowed to grow in good greenhouse environment. The test plants were treated at 2-3 leaf stage 2 weeks after sowing. The test compounds of the invention were dissolved with acetone respectively, then added with tween-80, and using 1.5 liters per hectare of an emulsible concentrate of methyl oleate as a synergist, and diluted by certain amount of water to certain concentration. The solution was sprayed to the plants with a sprayer. Then the plants were cultured for 3 weeks in the greenhouse, and the experiment result of weed controlling effect after 3 weeks was listed in tables 3-4.
row,SMILES,Activity level (growth inhibition rate) Abutilon theophrasti
1,CSC(=O)C(Oc1nc(F)c(Cl)c(N)c1Cl)c1cccs1 (stereo not drawn) [Compound 53],5 (Level 5: the growth inhibition rate is greater than 85%)
2,CSC(=O)C(Oc1nc(F)c(Cl)c(N)c1Cl)[N+](=O)[O-] (stereo not drawn) [Compound 49],5 (Level 5: the growth inhibition rate is greater than 85%)
3,COc1ccc(C(Oc2nc(F)c(Cl)c(N)c2Cl)C(=O)SC)c(C)c1 (stereo not drawn) [Compound 62],5 (Level 5: the growth inhibition rate is greater than 85%)
4,CSC(=O)C(Oc1nc(F)c(Cl)c(N)c1Cl)SC (stereo not drawn) [Compound 47],5 (Level 5: the growth inhibition rate is greater than 85%)
5,COC(=O)C(Oc1nc(F)c(Cl)c(N)c1Cl)C(=O)SC (stereo not drawn) [Compound 52],5 (Level 5: the growth inhibition rate is greater than 85%)
6,CSC(=O)C(CC#N)Oc1nc(F)c(Cl)c(N)c1Cl (stereo not drawn) [Compound 44],5 (Level 5: the growth inhibition rate is greater than 85%)
7,CCC(Oc1ncc(Cl)c(N)c1Cl)C(=O)SC (stereo not drawn) [Compound 23],5 (Level 5: the growth inhibition rate is greater than 85%)
8,C#CC(Oc1nc(F)c(Cl)c(N)c1Cl)C(=O)SC (stereo not drawn) [Compound 33],5 (Level 5: the growth inhibition rate is greater than 85%)
9,CCSC(=O)C(Oc1nc(F)c(Cl)c(N)c1Cl)c1ccc(C(F)(F)F)cc1 (stereo not drawn) [Compound 60],5 (Level 5: the growth inhibition rate is greater than 85%)
10,CSC(=O)C(Br)Oc1nc(F)c(Cl)c(N)c1Cl (stereo not drawn) [Compound 36],5 (Level 5: the growth inhibition rate is greater than 85%)
11,CSC(=O)C(Oc1nc(F)c(Cl)c(N)c1Cl)c1cscn1 (stereo not drawn) [Compound 55],5 (Level 5: the growth inhibition rate is greater than 85%)
12,COC(C)C(Oc1nc(F)c(Cl)c(N)c1Cl)C(=O)SC (stereo not drawn) [Compound 31],5 (Level 5: the growth inhibition rate is greater than 85%)
13,CSC(=O)C(Oc1nc(F)c(Cl)c(N)c1Cl)c1ccccc1 (stereo not drawn) [Compound 59],5 (Level 5: the growth inhibition rate is greater than 85%)
14,CCC(Oc1nc(Cl)c(Cl)c(N)c1Cl)C(=O)SC (stereo not drawn) [Compound 24],5 (Level 5: the growth inhibition rate is greater than 85%)
15,CSC(=O)C(Oc1nc(F)c(Cl)c(N)c1Cl)c1cn(C)nc1C (stereo not drawn) [Compound 57],5 (Level 5: the growth inhibition rate is greater than 85%)
16,CSC(=O)C(Oc1nc(F)c(Cl)c(N)c1Cl)c1ccc2ccccc2c1 (stereo not drawn) [Compound 65],5 (Level 5: the growth inhibition rate is greater than 85%)
17,CSC(=O)C(Oc1nc(F)c(Cl)c(N)c1Cl)C(F)(F)F (stereo not drawn) [Compound 41],5 (Level 5: the growth inhibition rate is greater than 85%)
18,CSC(=O)C(CO)Oc1nc(F)c(Cl)c(N)c1Cl (stereo not drawn) [Compound 48],5 (Level 5: the growth inhibition rate is greater than 85%)
19,COCC(Oc1nc(F)c(Cl)c(N)c1Cl)C(=O)SC (stereo not drawn) [Compound 29],5 (Level 5: the growth inhibition rate is greater than 85%)
20,CSC(=O)C(C=O)Oc1nc(F)c(Cl)c(N)c1Cl (stereo not drawn) [Compound 51],5 (Level 5: the growth inhibition rate is greater than 85%)
21,CSC(=O)C(CN(C)C)Oc1nc(F)c(Cl)c(N)c1Cl (stereo not drawn) [Compound 46],5 (Level 5: the growth inhibition rate is greater than 85%)
22,CSC(=O)C(CC(F)(F)F)Oc1nc(F)c(Cl)c(N)c1Cl (stereo not drawn) [Compound 42],5 (Level 5: the growth inhibition rate is greater than 85%)

# Test system: Monochoria vaginalis
# Test: as above
# Assay type: in vivo
# Conditions: post-emergence spray, after 3 weeks, fresh weight inhibition
# From the text: as §1, §2, §3
row,SMILES,Activity level (growth inhibition rate) Monochoria Vaginalis
1,CSC(=O)C(Oc1nc(F)c(Cl)c(N)c1Cl)c1cccs1 (stereo not drawn) [Compound 53],5 (Level 5: the growth inhibition rate is greater than 85%)
2,CSC(=O)C(Oc1nc(F)c(Cl)c(N)c1Cl)[N+](=O)[O-] (stereo not drawn) [Compound 49],5 (Level 5: the growth inhibition rate is greater than 85%)
3,COc1ccc(C(Oc2nc(F)c(Cl)c(N)c2Cl)C(=O)SC)c(C)c1 (stereo not drawn) [Compound 62],5 (Level 5: the growth inhibition rate is greater than 85%)
4,CSC(=O)C(Oc1nc(F)c(Cl)c(N)c1Cl)SC (stereo not drawn) [Compound 47],5 (Level 5: the growth inhibition rate is greater than 85%)
5,COC(=O)C(Oc1nc(F)c(Cl)c(N)c1Cl)C(=O)SC (stereo not drawn) [Compound 52],5 (Level 5: the growth inhibition rate is greater than 85%)
6,CSC(=O)C(CC#N)Oc1nc(F)c(Cl)c(N)c1Cl (stereo not drawn) [Compound 44],5 (Level 5: the growth inhibition rate is greater than 85%)
7,CCC(Oc1ncc(Cl)c(N)c1Cl)C(=O)SC (stereo not drawn) [Compound 23],5 (Level 5: the growth inhibition rate is greater than 85%)
8,C#CC(Oc1nc(F)c(Cl)c(N)c1Cl)C(=O)SC (stereo not drawn) [Compound 33],5 (Level 5: the growth inhibition rate is greater than 85%)
9,CCSC(=O)C(Oc1nc(F)c(Cl)c(N)c1Cl)c1ccc(C(F)(F)F)cc1 (stereo not drawn) [Compound 60],5 (Level 5: the growth inhibition rate is greater than 85%)
10,CSC(=O)C(Br)Oc1nc(F)c(Cl)c(N)c1Cl (stereo not drawn) [Compound 36],5 (Level 5: the growth inhibition rate is greater than 85%)
11,CSC(=O)C(Oc1nc(F)c(Cl)c(N)c1Cl)c1cscn1 (stereo not drawn) [Compound 55],5 (Level 5: the growth inhibition rate is greater than 85%)
12,COC(C)C(Oc1nc(F)c(Cl)c(N)c1Cl)C(=O)SC (stereo not drawn) [Compound 31],5 (Level 5: the growth inhibition rate is greater than 85%)
13,CSC(=O)C(Oc1nc(F)c(Cl)c(N)c1Cl)c1ccccc1 (stereo not drawn) [Compound 59],5 (Level 5: the growth inhibition rate is greater than 85%)
14,CCC(Oc1nc(Cl)c(Cl)c(N)c1Cl)C(=O)SC (stereo not drawn) [Compound 24],5 (Level 5: the growth inhibition rate is greater than 85%)
15,CSC(=O)C(Oc1nc(F)c(Cl)c(N)c1Cl)c1cn(C)nc1C (stereo not drawn) [Compound 57],5 (Level 5: the growth inhibition rate is greater than 85%)
16,CSC(=O)C(Oc1nc(F)c(Cl)c(N)c1Cl)c1ccc2ccccc2c1 (stereo not drawn) [Compound 65],5 (Level 5: the growth inhibition rate is greater than 85%)
17,CSC(=O)C(Oc1nc(F)c(Cl)c(N)c1Cl)C(F)(F)F (stereo not drawn) [Compound 41],5 (Level 5: the growth inhibition rate is greater than 85%)
18,CSC(=O)C(CO)Oc1nc(F)c(Cl)c(N)c1Cl (stereo not drawn) [Compound 48],5 (Level 5: the growth inhibition rate is greater than 85%)
19,COCC(Oc1nc(F)c(Cl)c(N)c1Cl)C(=O)SC (stereo not drawn) [Compound 29],5 (Level 5: the growth inhibition rate is greater than 85%)
20,CSC(=O)C(C=O)Oc1nc(F)c(Cl)c(N)c1Cl (stereo not drawn) [Compound 51],5 (Level 5: the growth inhibition rate is greater than 85%)
21,CSC(=O)C(CN(C)C)Oc1nc(F)c(Cl)c(N)c1Cl (stereo not drawn) [Compound 46],5 (Level 5: the growth inhibition rate is greater than 85%)
22,CSC(=O)C(CC(F)(F)F)Oc1nc(F)c(Cl)c(N)c1Cl (stereo not drawn) [Compound 42],5 (Level 5: the growth inhibition rate is greater than 85%)

# Test system: Galium spurium
# Test: as above
# Assay type: in vivo
# Conditions: post-emergence spray, after 3 weeks, fresh weight inhibition
# From the text: as §1, §2, §3
row,SMILES,Activity level (growth inhibition rate) Galium spurium
1,CSC(=O)C(Oc1nc(F)c(Cl)c(N)c1Cl)c1cccs1 (stereo not drawn) [Compound 53],5 (Level 5: the growth inhibition rate is greater than 85%)
2,CSC(=O)C(Oc1nc(F)c(Cl)c(N)c1Cl)[N+](=O)[O-] (stereo not drawn) [Compound 49],5 (Level 5: the growth inhibition rate is greater than 85%)
3,COc1ccc(C(Oc2nc(F)c(Cl)c(N)c2Cl)C(=O)SC)c(C)c1 (stereo not drawn) [Compound 62],5 (Level 5: the growth inhibition rate is greater than 85%)
4,CSC(=O)C(Oc1nc(F)c(Cl)c(N)c1Cl)SC (stereo not drawn) [Compound 47],5 (Level 5: the growth inhibition rate is greater than 85%)
5,COC(=O)C(Oc1nc(F)c(Cl)c(N)c1Cl)C(=O)SC (stereo not drawn) [Compound 52],5 (Level 5: the growth inhibition rate is greater than 85%)
6,CSC(=O)C(CC#N)Oc1nc(F)c(Cl)c(N)c1Cl (stereo not drawn) [Compound 44],5 (Level 5: the growth inhibition rate is greater than 85%)
7,CCC(Oc1ncc(Cl)c(N)c1Cl)C(=O)SC (stereo not drawn) [Compound 23],5 (Level 5: the growth inhibition rate is greater than 85%)
8,C#CC(Oc1nc(F)c(Cl)c(N)c1Cl)C(=O)SC (stereo not drawn) [Compound 33],5 (Level 5: the growth inhibition rate is greater than 85%)
9,CCSC(=O)C(Oc1nc(F)c(Cl)c(N)c1Cl)c1ccc(C(F)(F)F)cc1 (stereo not drawn) [Compound 60],5 (Level 5: the growth inhibition rate is greater than 85%)
10,CSC(=O)C(Br)Oc1nc(F)c(Cl)c(N)c1Cl (stereo not drawn) [Compound 36],5 (Level 5: the growth inhibition rate is greater than 85%)
11,CSC(=O)C(Oc1nc(F)c(Cl)c(N)c1Cl)c1cscn1 (stereo not drawn) [Compound 55],5 (Level 5: the growth inhibition rate is greater than 85%)
12,COC(C)C(Oc1nc(F)c(Cl)c(N)c1Cl)C(=O)SC (stereo not drawn) [Compound 31],5 (Level 5: the growth inhibition rate is greater than 85%)
13,CSC(=O)C(Oc1nc(F)c(Cl)c(N)c1Cl)c1ccccc1 (stereo not drawn) [Compound 59],5 (Level 5: the growth inhibition rate is greater than 85%)
14,CCC(Oc1nc(Cl)c(Cl)c(N)c1Cl)C(=O)SC (stereo not drawn) [Compound 24],5 (Level 5: the growth inhibition rate is greater than 85%)
15,CSC(=O)C(Oc1nc(F)c(Cl)c(N)c1Cl)c1cn(C)nc1C (stereo not drawn) [Compound 57],5 (Level 5: the growth inhibition rate is greater than 85%)
16,CSC(=O)C(Oc1nc(F)c(Cl)c(N)c1Cl)c1ccc2ccccc2c1 (stereo not drawn) [Compound 65],5 (Level 5: the growth inhibition rate is greater than 85%)
17,CSC(=O)C(Oc1nc(F)c(Cl)c(N)c1Cl)C(F)(F)F (stereo not drawn) [Compound 41],5 (Level 5: the growth inhibition rate is greater than 85%)
18,CSC(=O)C(CO)Oc1nc(F)c(Cl)c(N)c1Cl (stereo not drawn) [Compound 48],5 (Level 5: the growth inhibition rate is greater than 85%)
19,COCC(Oc1nc(F)c(Cl)c(N)c1Cl)C(=O)SC (stereo not drawn) [Compound 29],5 (Level 5: the growth inhibition rate is greater than 85%)
20,CSC(=O)C(C=O)Oc1nc(F)c(Cl)c(N)c1Cl (stereo not drawn) [Compound 51],5 (Level 5: the growth inhibition rate is greater than 85%)
21,CSC(=O)C(CN(C)C)Oc1nc(F)c(Cl)c(N)c1Cl (stereo not drawn) [Compound 46],5 (Level 5: the growth inhibition rate is greater than 85%)
22,CSC(=O)C(CC(F)(F)F)Oc1nc(F)c(Cl)c(N)c1Cl (stereo not drawn) [Compound 42],5 (Level 5: the growth inhibition rate is greater than 85%)
